# Measurements reported in patent US8148392B2, “2-indolyl imidazo [4,5-d] phenanthroline derivatives and their use in the treatment of cancer” (Lorus Therapeutics Inc., priority 2005, dated 2012).
# Like-named read-outs stand apart in the source and are kept apart here.
# Columns and labels:
# [1] = tested on: DU-145 prostate cancer cells; assay: XTT cell proliferation assay, DU-145; assay type: cell-based, human; conditions: read-out: IC50 (cell growth inhibition)
# Protocol: (§1) Cell growth inhibition IC50 (μM) by compounds of Formula I was tested on various cancer cell types by XTT cell proliferation assay. The growth inhibitory effects of the compounds of Formula I as shown below for the melanoma cell line SK-MEL-2 were reproducible by Lorus Therapeutics Inc.
# [2] = tested on: KLF4; assay: KLF4 gene expression by RT-PCR, MOLT-4; assay type: cell-based, human; conditions: MOLT-4, relative to vehicle control as 1
# Excerpt: (§2) Gene expression levels of KLF4, induced by compounds of Formula I, were also examined on various cancer cell types by RT-PCR. Fold changes in KLF4 in compound-treated cells were expressed relative to KLF4 expression in vehicle control-treated cells of respective cell type as “1”. […] Additionally, xenografts of MDA-MB-435 implanted into mammary fat pads of female SCID mice have shown immunohistochemical staining consistent with melanocytic origin (Ellison G, Klinowska T, Westwood R F, Docter E, French T, Fox J C. (2002) Mol Pathol. 55(5): 294-299). The breast cancer cell line MDA-MB-435 may be expected to function differently than the other breast cancer cell lines.
# [3] = tested on: MOLT-4 leukemia cells; assay: XTT cell proliferation assay, MOLT-4; assay type: cell-based, human; conditions: read-out: IC50 (cell growth inhibition)
# Protocol: as §1
# [4] = tested on: MDA-MB-435 breast cancer cells; assay: XTT cell proliferation assay, MDA-MB-435; assay type: cell-based, human; conditions: read-out: IC50 (cell growth inhibition)
# Protocol: as §1
# [5] = tested on: CCRF-CEM leukemia cells; assay: XTT cell proliferation assay, CCRF-CEM; assay type: cell-based, human; conditions: read-out: IC50 (cell growth inhibition)
# Protocol: as §1
# [6] = tested on: KLF4; assay: KLF4 gene expression by RT-PCR, SK-MEL-2; assay type: cell-based, human; conditions: SK-MEL-2, relative to vehicle control as 1
# Excerpt: as §2
# [7] = tested on: KLF4; assay: KLF4 gene expression by RT-PCR, CCRF-CEM; assay type: cell-based, human; conditions: relative to vehicle control as 1
# Excerpt: as §2
# [8] = tested on: KLF4; assay: KLF4 gene expression by RT-PCR, HCT-116; assay type: cell-based, human; conditions: HCT-116, relative to vehicle control as 1
# Excerpt: as §2
# [9] = tested on: H-460 lung cancer cells; assay: XTT cell proliferation assay, H-460; assay type: cell-based, human; conditions: read-out: IC50 (cell growth inhibition)
# Protocol: as §1
# [10] = tested on: KLF4; assay: KLF4 gene expression by RT-PCR, MDA-MB-435; assay type: cell-based, human; conditions: MDA-MB-435, relative to vehicle control as 1
# Excerpt: as §2
# [11] = tested on: HCT-116 colon cancer cells; assay: XTT cell proliferation assay, HCT-116; assay type: cell-based, human; conditions: read-out: IC50 (cell growth inhibition)
# Protocol: as §1
# [12] = tested on: KLF4; assay: KLF4 gene expression by RT-PCR, PC-3; assay type: cell-based, human; conditions: PC-3, relative to vehicle control as 1
# Excerpt: as §2
# [13] = tested on: MDA-MB-231 breast cancer cells; assay: XTT cell proliferation assay, MDA-MB-231; assay type: cell-based, human; conditions: read-out: IC50 (cell growth inhibition)
# Protocol: as §1
# [14] = tested on: KLF4; assay: KLF4 gene expression by RT-PCR, DU-145; assay type: cell-based, human; conditions: DU-145, relative to vehicle control as 1
# Excerpt: as §2
# [15] = tested on: human colon carcinoma HT-29 cells; assay: XTT cell proliferation assay, HT-29; assay type: cell-based
# Procedure, shortened: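 HT-29 cells in McCoy's 5A with 10% FBS, 37° C., 5% CO2, exposed to varying compound concentrations for 6-7 days. Viable cells quantified by XTT reduction to formazan; growth inhibition expressed as IC50 (μM).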
# [16] = tested on: KLF4; assay: KLF4 gene expression by RT-PCR, H-460; assay type: cell-based, human; conditions: H-460, relative to vehicle control as 1
# Excerpt: as §2
# Expressions of KLF2, 4 and 6 genes in H-460 cells, treated with vehicle control or 2.5 μM compound 3 or compound 7, were measured by RT-PCR. Gene expression was presented relative to respective gene expression in vehicle control-treated group as “1”.
# [17] = tested on: PC-3 prostate cancer cells; assay: XTT cell proliferation assay, PC-3; assay type: cell-based, human; conditions: read-out: IC50 (cell growth inhibition)
# Protocol: as §1
# [18] = tested on: KLF4; assay: KLF4 gene expression by RT-PCR, HT-29; assay type: cell-based, human; conditions: HT-29, relative to vehicle control as 1
# Protocol: (§3) To determine whether compounds of Formula I can chelate zinc in cells, the effect of compound 3 on the expression level of a zinc-regulated gene, metallothionein 1A (MT1A), in human colon carcinoma HT-29 cells, was determined. HT-29 cells, 1×10^6 cells in 10 mL volume of the growth medium were seeded in 100 mm dishes and incubated overnight at 37° C. The medium was removed and replaced with the growth medium containing 35 μM ZnCl2, 1 μM or 4 μM TPEN (NNNN-tetrakis(2-pyridyl-methyl)ethylenediamine), or 1 μM or 4 μM compound 3, or 0.1% DMSO vehicle control. After incubation for 16 hours, the cells were detached by trypsinization, collected by centrifugation and washed once with PBS. Total RNA was extracted by using TRIZOL (Invitrogen, Life Technologies, Carlsbad, Calif.), following manufacturer's instruction, and the level of MT1A mRNA was measured by real time PCR using the comparative CT method as follows. First strand cDNA was synthesized from 200 ng total RNA in Biometra Tpersonal Thermal Cycler (Abgene, UK), using pd(N)6 random hexamer (Amersham Biosciences, Piscataway, N.J.) and SuperScript™ II Reverse Transcriptase kit (Invitrogen) by following manufacturer's protocol. Real-time PCR was performed in ABI Prism 7000 Sequence Detection System (Applied Biosystems Inc., ABI, Foster City, Calif.), using 5 μL of cDNA synthesized by above-mentioned procedure and respective TaqMan® Gene Expression Assays (ABI) by following ABI TaqMan® Universal PCR master mix protocol.
# The ability of compounds of Formula I to modulate the mRNA level of a transition metal-regulated tumour suppressor gene was determined in vitro as follows. Compound 3 was tested to determine its ability to increase the expression of zinc-regulated tumour suppressor KLF4 mRNA in colon carcinoma HT-29 cells. […] HT-29 cells were incubated for 16 hours with DMSO as a vehicle control, 35 μM ZnCl2, 1 μM or 4 μM of compound 3, or 1 μM or 4 μM TPEN for 16 hours and mRNA was extracted from the cells as described in Example 19. The expression of KLF4 mRNA was analyzed by real-time polymerase chain reaction using the comparative CT method also as described in Example 19. Compound 3 induced the expression of KLF4 mRNA (approximately 8-fold) in HT-29 cells compared with HT-29 cells treated with vehicle alone (See FIG. 8).
# as §2
# The change in gene expression of KLF4 upon zinc depletion following compound 3 treatment was determined by RT-PCR as follows. HT-29 cells were treated with 1 μM compound 3 for the indicated time (FIG. 39A) or HT-29 cells were treated with 1 μM compound 3, 35 μM ZnCl2 or compund 3 and ZnCl2 together for 16 hr (FIG. 39B). Total RNA was extracted and gene expression level was determined by RT-PCR.
# Fold change in KLF4 gene expression was presented relative to KLF4 expression in non-specific siRNA-transfected cells treated with vehicle control.
# [19] = tested on: SK-MEL-2 melanoma cells; assay: XTT cell proliferation assay, SK-MEL-2; assay type: cell-based, human; conditions: read-out: IC50 (cell growth inhibition)
# Protocol: as §1
# [20] = tested on: KLF4; assay: KLF4 gene expression by RT-PCR, MDA-MB-231; assay type: cell-based, human; conditions: MDA-MB-231, relative to vehicle control as 1
# Excerpt: as §2
# [21] = tested on: metallothionein 1A (MT1A); assay: Metallothionein 1A (MT1A) mRNA expression in HT-29 cells, real time PCR; assay type: cell-based, human; conditions: HT-29, versus DMSO control, in words
# Protocol: as §3
# The effect of compound 3 and compound 7 treatment on the expressions of a zinc-storage protein meallothionein 1A (MT1A) (FIG. 29A), a copper transporter, Ctrl also known as SLC31A1 (FIG. 29B) and an iron transporter; transferrin receptor 1 (TfR1) (FIG. 29C) were measured and compared with a known zinc chelator TPEN, a copper chelator tetramine and an iron chelator DFO, respectively. Despite in vitro chelation of Cu^+2, increase in copper-sensitive gene after compound 3 treatment was transient.
# HT-29 cells were treated with 1 μM compound 3 for the indicated time and MT1A gene expression was measured as follows. Total RNA was extracted using TRIZOL method and gene expression level was determined by quantitative reverse-transcription polymerase chain reaction (RT-PCR). MT1A gene expression was normalized with β-actin gene expression in the same sample. Fold change in MT1A was expressed relative to MT1A level of DMSO control at respective time points.
# To verify that the MT1A gene expression reflected the intracellular zinc level, HT-29 cells were treated with 1 μM compound 3, 35 μM ZnCl2 or compound 3 and ZnCl2 together for 16 hr (FIG. 38B). MT1A gene expression was determined by RT-PCR as described above. MT1A gene expression was elevated in response to increased intracellular zinc ions in ZnCl2-treated cells.
# The ability of compounds of Formula I to modulate gene expression of MT1A (FIG. 55A), MTF-1 (FIG. 55B), Cyclin D1 (FIG. 55C) and KLF4 (FIG. 55D) was determined by RT-PCR. HT-29 cells were treated with 1 μM compound 3 or compound 7, 35 μM ZnCl2, compound 3 and ZnCl2 together, or compound 7 and ZnCl2 together for 8 to 16 hr. The respective gene expression was normalized with β-actin gene expression in the same sample. Fold change in gene expression was expressed relative to the respective gene level of DMSO control.
# The effect of compound 3 and compound 64 on gene expression changes in MT1A (FIG. 57A), MTF-1 (FIG. 57B), Cyclin D1 (FIG. 57C) and KLF4 (FIG. 57D) in HT-29 cells was determined by RT-PCR. HT-29 cells were treated with 1 μM compound 3 or compound 64, 35 μM ZnCl2, compound 3 and ZnCl2 together, or compound 64 and ZnCl2 together for 8 to 16 hr. The respective gene expression was normalized with β-actin gene expression in the same sample. Fold change in gene expression was expressed relative to the respective gene level of DMSO control.
# [22] = tested on: intracellular zinc ions in HT-29 cells; assay: Chelation of intracellular zinc in HT-29 cells, Zinquin fluorescence; assay type: cell-based, human; conditions: HT-29 with or without pre-loading with 35 μM ZnCl2, 30 min
# Protocol: To determine the chelation property of compound 3 with intracellular zinc ions, HT-29 cells, with or without pre-loaded with 35 μM ZnCl2 were treated with compound 3, a known zinc chelator TPEN or vehicle control (DMSO), and intracellular free zinc was determined by measuring Zinquin fluorescence as described in the preceding Example (FIG. 37). HT-29 cells (4×10^5 cells/group) were pre-treated with 35 μM ZnCl2 for 20 min, followed by addition of indicated concentrations of compound 3 or TPEN and 10 μM Zinquin for 30 min at 37° C., and the fluorescence count was measured (FIG. 37A). For measurement of chelation of endogenous zinc ions in HT-29 cells, HT-29 cells (1.5×10^6 cells/group) were treated with indicated concentrations of compound 3 and 10 μM Zinquin for 30 min at 37° C., and the fluorescence count was measured (FIG. 37B).
structure (smiles),measurement,setting,value
Cc1ccc2[nH]c(C34CC5CC(CC(C5)C3)C4)c(-c3nc4c5cccnc5c5ncccc5c4[nH]3)c2c1 [Compound 69],IC50,[1],400 nM
same,KLF4 (gene fold increase),[2],276.28 fold
same,IC50,[3],200 nM
same,IC50,[4],600 nM
same,IC50,[5],200 nM
same,KLF4 (gene fold increase),[6],4 fold
same,KLF4 (gene fold increase),[7],74.29 fold
same,KLF4 (gene fold increase),[8],3.11 fold
same,IC50,[9],400 nM
same,KLF4 (gene fold increase),[10],8.91 fold
same,IC50,[11],160 nM
same,KLF4 (gene fold increase),[12],0.95 fold
same,IC50,[13],3300 nM
same,KLF4 (gene fold increase),[14],7.46 fold
same,IC50,"[15]; HT-29, XTT, as Example 13, Table 7",0.2 µg/mL
same,IC50,"[15]; HT-29 colon, Table 8, read-out: IC50 (cell growth inhibition)",200 nM
same,KLF4 (gene fold increase),[16],1.95 fold
same,IC50,[17],340 nM
same,KLF4 (gene fold increase),[18],6.54 fold
same,IC50,[19],180 nM
same,KLF4 (gene fold increase),[20],1.61 fold
"c1ccc(CN(CCN(Cc2ccccn2)Cc2ccccn2)Cc2ccccn2)nc1 [TPEN, NNNN-tetrakis(2-pyridyl-methyl)ethylenediamine, reference compound]","MT1A gene expression, change",[21],decreased the expression of MT1A
same,intracellular free zinc (Zinquin fluorescence),[22],Dose-dependent decrease in both pre-loaded zinc and endogenous zinc levels
